What was measured:
Assay type in all cases: functional
[1] = Cytotoxicity against human HCT116 cells assessed as growth inhibition at 100 uM after 2 days by MTT assay; details: HCT-116, 48 h, read-out: GI
[2] = Cytotoxicity against human HCT116 cells assessed as growth inhibition at 10 uM after 2 days by MTT assay; details: HCT-116, 48 h, read-out: GI
[3] = Cytotoxicity against human SKBR3 cells assessed as growth inhibition at 100 uM after 2 days by MTT assay; details: SK-BR-3, 48 h, read-out: GI
[4] = Cytotoxicity against human SKBR3 cells assessed as growth inhibition at 10 uM after 2 days by MTT assay; details: SK-BR-3, 48 h, read-out: GI
CCRF-CEM = assay: Antiproliferative activity against human CCRF-CEM cells assessed as cell growth at 10^-5 M after 48 hrs by sulforhodamine B assay; details: read-out: Activity
[5] = Antiproliferative activity against human HL-60(TB) cells assessed as cell growth at 10^-5 M after 48 hrs by sulforhodamine B assay; details: HL-60, 48 h, read-out: Activity
K562 = assay: Antiproliferative activity against human K562 cells assessed as cell growth at 10^-5 M after 48 hrs by sulforhodamine B assay; details: K562, 48 h, read-out: Activity
SR = assay: Antiproliferative activity against human SR cells assessed as cell growth at 10^-5 M after 48 hrs by sulforhodamine B assay; details: read-out: Activity
[6] = Antiproliferative activity against human HOP92 cells assessed as cell growth at 10^-5 M after 48 hrs by sulforhodamine B assay; details: HOP-92, 48 h, read-out: Activity
NCI-H322M = assay: Antiproliferative activity against human NCI-H322M cells assessed as cell growth at 10^-5 M after 48 hrs by sulforhodamine B assay; details: read-out: Activity
NCI-H460 = assay: Antiproliferative activity against human NCI-H460 cells assessed as cell growth at 10^-5 M after 48 hrs by sulforhodamine B assay; details: NCI-H460, 48 h, read-out: Activity
NCI-H522 = assay: Antiproliferative activity against human NCI-H522 cells assessed as cell growth at 10^-5 M after 48 hrs by sulforhodamine B assay; details: NCI-H522, 48 h, read-out: Activity
[7] = Antiproliferative activity against human COLO205 cells assessed as cell growth at 10^-5 M after 48 hrs by sulforhodamine B assay; details: COLO 205, 48 h, read-out: Activity
[8] = Antiproliferative activity against human HCC2998 cells assessed as cell growth at 10^-5 M after 48 hrs by sulforhodamine B assay; details: HCC 2998, 48 h, read-out: Activity
[9] = Antiproliferative activity against human HCT15 cells assessed as cell growth at 10^-5 M after 48 hrs by sulforhodamine B assay; details: HCT-15, 48 h, read-out: Activity
[10] = Antiproliferative activity against human SW620 cells assessed as cell growth at 10^-5 M after 48 hrs by sulforhodamine B assay; details: SW-620, 48 h, read-out: Activity
[11] = Antiproliferative activity against human SF295 cells assessed as cell growth at 10^-5 M after 48 hrs by sulforhodamine B assay; details: SF-295, 48 h, read-out: Activity
[12] = Antiproliferative activity against human SNB19 cells assessed as cell growth at 10^-5 M after 48 hrs by sulforhodamine B assay; details: SNB-19, 48 h, read-out: Activity
[13] = Antiproliferative activity against human SNB75 cells assessed as cell growth at 10^-5 M after 48 hrs by sulforhodamine B assay; details: SNB-75, 48 h, read-out: Activity
U-251 = assay: Antiproliferative activity against human U251 cells assessed as cell growth at 10^-5 M after 48 hrs by sulforhodamine B assay; details: U-251, 48 h, read-out: Activity
SK-MEL-2 = assay: Antiproliferative activity against human SK-MEL-2 cells assessed as cell growth at 10^-5 M after 48 hrs by sulforhodamine B assay; details: SK-MEL-2, 48 h, read-out: Activity
SK-MEL-28 = assay: Antiproliferative activity against human SK-MEL-28 cells assessed as cell growth at 10^-5 M after 48 hrs by sulforhodamine B assay; details: SK-MEL-28, 48 h, read-out: Activity
SK-MEL-5 = assay: Antiproliferative activity against human SK-MEL-5 cells assessed as cell growth at 10^-5 M after 48 hrs by sulforhodamine B assay; details: SK-MEL-5, 48 h, read-out: Activity
[14] = Antiproliferative activity against human IGROV1 cells assessed as cell growth at 10^-5 M after 48 hrs by sulforhodamine B assay; details: IGROV-1, 48 h, read-out: Activity
[15] = Antiproliferative activity against human OVCAR3 cells assessed as cell growth at 10^-5 M after 48 hrs by sulforhodamine B assay; details: OVCAR-3, 48 h, read-out: Activity
[16] = Antiproliferative activity against human OVCAR5 cells assessed as cell growth at 10^-5 M after 48 hrs by sulforhodamine B assay; details: OVCAR-5, 48 h, read-out: Activity
[17] = Antiproliferative activity against human OVCAR8 cells assessed as cell growth at 10^-5 M after 48 hrs by sulforhodamine B assay; details: OVCAR-8, 48 h, read-out: Activity
[18] = Antiproliferative activity against human NCI-ADR-RES cells assessed as cell growth at 10^-5 M after 48 hrs by sulforhodamine B assay; details: read-out: Activity
[19] = Antiproliferative activity against human SKOV3 cells assessed as cell growth at 10^-5 M after 48 hrs by sulforhodamine B assay; details: SK-OV-3, 48 h, read-out: Activity
[20] = Antiproliferative activity against human Caki1 cells assessed as cell growth at 10^-5 M after 48 hrs by sulforhodamine B assay; details: CAKI-1, 48 h, read-out: Activity
SN12C = assay: Antiproliferative activity against human SN12C cells assessed as cell growth at 10^-5 M after 48 hrs by sulforhodamine B assay; details: read-out: Activity
[21] = Antiproliferative activity against human TK10 cells assessed as cell growth at 10^-5 M after 48 hrs by sulforhodamine B assay; details: TK-10, 48 h, read-out: Activity
[22] = Antiproliferative activity against human PC3 cells assessed as cell growth at 10^-5 M after 48 hrs by sulforhodamine B assay; details: PC-3, 48 h, read-out: Activity
[23] = Antiproliferative activity against human DU145 cells assessed as cell growth at 10^-5 M after 48 hrs by sulforhodamine B assay; details: DU-145, 48 h, read-out: Activity
MCF7 = assay: Antiproliferative activity against human MCF7 cells assessed as cell growth at 10^-5 M after 48 hrs by sulforhodamine B assay; details: MCF7, 48 h, read-out: Activity
[24] = Antiproliferative activity against human Hs 578T cells assessed as cell growth at 10^-5 M after 48 hrs by sulforhodamine B assay; details: read-out: Activity
T47D = assay: Antiproliferative activity against human T47D cells assessed as cell growth at 10^-5 M after 48 hrs by sulforhodamine B assay; details: read-out: Activity

Structure (SMILES) | inhibition of growth at 100 µM [1] | inhibition of growth at 10 µM [2] | inhibition of growth at 100 µM [3] | inhibition of growth at 10 µM [4] | growth at 10 µM (CCRF-CEM) | growth at 10 µM [5] | growth at 10 µM (K562) | growth at 10 µM (SR) | growth at 10 µM [6] | growth at 10 µM (NCI-H322M) | growth at 10 µM (NCI-H460) | growth at 10 µM (NCI-H522) | growth at 10 µM [7] | growth at 10 µM [8] | growth at 10 µM [9] | growth at 10 µM [10] | growth at 10 µM [11] | growth at 10 µM [12] | growth at 10 µM [13] | growth at 10 µM (U-251) | also measured
CNC(=O)c1cc(Oc2ccc3nc(NC(=O)Nc4ccc(F)cc4F)sc3c2)ccn1 | 86.3% | 56.9% | 79.5% | 61.6% | 89.7% | 98.3% | 71.5% | 80.4% | -13.7% | 62.2% | 63% | 68.7% | 87.1% | 88.1% | 84% | 99.9% | 76.7% | 71.1% | 19.2% | 37% | growth at 10 µM (SK-MEL-2): 74.7%; growth at 10 µM (SK-MEL-28): 52.1%; growth at 10 µM (SK-MEL-5): 39%; growth at 10 µM [14]: 84.2%; growth at 10 µM [15]: 74.7%; growth at 10 µM [16]: 95.2%; growth at 10 µM [17]: 45.1%; growth at 10 µM [18]: 45.5%; growth at 10 µM [19]: 76.3%; growth at 10 µM [20]: 88.4%; growth at 10 µM (SN12C): 69.2%; growth at 10 µM [21]: 93.5%; growth at 10 µM [22]: 65.9%; growth at 10 µM [23]: 65.7%; growth at 10 µM (MCF7): 66.8%; growth at 10 µM [24]: 44.5%; growth at 10 µM (T47D): 56.5%
CNC(=O)c1cc(Oc2ccc3nc(NC(=O)Nc4ccc(C(F)(F)F)cc4)sc3c2)ccn1 | 74.9% | 64.8% | 79.6% | 69.9% | 68.1% | 120% | 76.3% | 70.6% | 74.4% | 80.5% | 33.4% | 42.4% | 58.8% | 104% | 54.2% | 37.9% | 63.2% | 79.3% | 29.1% | 22.4% | growth at 10 µM (SK-MEL-2): 92.9%; growth at 10 µM (SK-MEL-28): 68.9%; growth at 10 µM (SK-MEL-5): 56.9%; growth at 10 µM [14]: 70.9%; growth at 10 µM [15]: 24%; growth at 10 µM [16]: 93.9%; growth at 10 µM [17]: 48.5%; growth at 10 µM [18]: 58.4%; growth at 10 µM [19]: 105%; growth at 10 µM [20]: 92%; growth at 10 µM (SN12C): 71.2%; growth at 10 µM [21]: 55.3%; growth at 10 µM [22]: 58.8%; growth at 10 µM [23]: 48.9%; growth at 10 µM (MCF7): 42%; growth at 10 µM [24]: 30%; growth at 10 µM (T47D): 44.8%

From ChEMBL document CHEMBL3797052 (Eur J Med Chem, 2016)
